The text below walks through data of patent EP2236511A2, “LIGANDS OF ALPHA-ADRENOCEPTORS AND OF DOPAMINE, HISTAMINE, IMIDAZOLINE AND SEROTONIN RECEPTORS AND THE USE THEREOF” (priority 2007, dated 2009).

Read-outs that look alike come from different tables or passages of the source.

For assay [1], the target named is T1, recombinant human 5-HT2A receptor (Homo sapiens, UniProt P28223).
T1 construct: expressed in transfected cells; host or cells: CHO-K1
The assay can be described thus: Radioligand binding to serotonin receptor 5-HT2A ([3H] Ketanserin, CHO-K1 membranes). The conditions noted are these: for 5-HT2A % inhibition / inhibition at 10 µM: 10 µM ligand. The source says:
9-C. […] J Neurochem. […] Ketanserin is used as positive control.

Assay [2] addresses T2, human D1 receptor (Homo sapiens, UniProt P21728).
T2 construct: expressed in transfected cells; host or cells: CHO
The assay can be described thus: Radioligand binding to dopamine receptor D1 ([3H] SCH-23390, CHO membranes). The following applies: for inhibition at 10 µM: read-out: Dopamine receptors, % inhibition D1. The source says:
For this purpose sDNA of human D1 receptor is expressed in CHO cells, as it was described in [Dearry A, Gingrich JA, Falardeau P, Fremeau RT Jr, Bates MD and Caron MG. Molecular cloning and expression of the gene for a human D1 dopamine receptor. Nature. […] Nature.

Assay [3] has as its target T3, human D3 receptor (Homo sapiens, UniProt P35462).
T3 construct: expressed in transfected cells; host or cells: CHO
The assay can be described thus: Radioligand binding to dopamine receptor D3 ([3H] Spiperone, CHO membranes). The source says:
For this purpose sDNA of human D3 receptor is expressed in CHO cells, as it was described in [Sokoloff P, Giros B, Martres M-P, Bouthenet M-L and Schwartz J-C. Molecular cloning and characterization of novel dopamine receptor (D3) as target for neuroleptics. Nature. […] Molecular cloning and characterization of novel dopamine receptor (D3) as target for neuroleptics. Nature. […] Spiperone is used as positive control.

The test system of assay [4] is male mice of BALB/c line. The assay can be described thus: Passive Avoidance of mice in the Shuttle Chamber, memory disturbed by MK-801. The conditions noted are these: MK-801 0.1 mg/kg, injected 30 minutes before training; fig. 4-6. In kind it is in vivo. The procedure:
Example 15. […] The testing was carried out as in example 14. […] Concurrently, physiological solution of MK-801 in combination with active ingredient 1.9 (1) 1/2NDSA was injected intraintestinally to independent group of mice before training.

The test system of assay [5] is male mice of BALB/c line. The assay can be described thus: Passive Avoidance of mice in the Shuttle Chamber, memory disturbed by Scopolamine. In kind it is in vivo. The following applies: Scopolamine 0.3 mg/kg, injected 30 minutes before training; figures 1-3. The method, then: Example 14. […] A shuttle chamber (Ugo Basile, Italy) consisted of two sections was used. […] The sections were connected through a hole which could be overlapped by a vertical door. The floor was made of transverse metal bars on which DC current impulses could be fed. Experiments were carried out in aged male mice of BALB/c line weighing 20-24 grams.
Each group consisted of at least 8 animals. Animal was placed in light section, and latent period of the first entry into dark chamber was registered. Then the vertical door was closed and the animal was punished by 0.6 mA DC current for 3 seconds. After that it was taken back to its homecage. In 22-24 hours the same animal was placed again in light section of the shuttle chamber and latent period of its first entry into dark section, the total time of its stay in light section, and the number of entries into dark section, were registered. Each monitoring lasted for 5 minutes.
Testing was carried out during the day time in isolated laboratory using white noise at level of about 70 decibel above human hearing threshold.
Scopolamine causes the disturbance of training (memory loss) that results in […].

For assay [6], the system named is male mice of BALB/c line. The assay can be described thus: Mice Behavior in the Elevated Plus Maze. The following applies: fig. 7-9; compared with Buspirone and Lorazepam. In kind it is in vivo. The source says:
Example 16. […] The length of each arm of the maze was 30cm, width is 5cm, and height of the walls was 15cm. Two opposite arms were closed from both sides and end faces by transparent walls, the other two arms were lit and opened. A mouse was placed in the center of the maze and for the next five minutes the number of entries into opened and closed arms and the time spent in each type of arms was registered. […] The animals usually avoided opened arms (the preference index is between 0.2 and 0.3). Compounds with tranquilizing action increased this index up to 0.5-0.6 or even more and reduced the number of defecations without changing the overall motion activity of the mice (the total number of their entries to the arms).

The subject of assay [7] is mice. The assay can be described thus: Mice Training in Morris Water Maze (Scopolamine). The class given is in vivo. The conditions noted are these: unitary introduction of active ingredient; figures 10-13. The procedure:
Example 17. Mice Training in Morris Water Maze. A round pool which was filled with water at 20-22°C was used. A round ceramic platform of 14cm height was placed in the pool. Animals's behavior was registered with automated computer videosystem in combination with software package of movement analysis Any-maze (Stoelting Co., US). Before testing mice suitable for training were selected. That was done by placing the platform 1cm above the water level and putting an animal on the platform for 20 seconds. Then the mouse was sunk into the water on the opposite side of the pool, allowed to find the platform and climbed it […] 60 seconds, where it was left for additional 20 seconds. After that the mouse was repeatedly immersed into water on the opposite side of the pool and allowed to look for platform. If it failed in finding the platform within 60 seconds the experimentator helped it to find the platform and climb it. If the mice could not find the platform itself in two consecutive attempts it was excluded from experiment. During the next two days the platform was placed 0.5 centimeter lower the water level. Every day the mice were given four attempts for finding the platform within 60 seconds. The time interval between the attempts was 20 seconds, during which the mice stayed on the platform. Every day before the first attempt mouse was placed on the platform for 20 seconds. The time needed for finding and climbing the platform was registered. The animals were sunk in water in 3 different places on the side of the pool opposite to platform. On each day of two-day testing 35-40 minutes before the beginning of training the mice were injected intraintestinally with physiological solution, Scopolamine or Scopolamine in combination with investigated compound. At least 8 animals were used in each group. On the third day the platform was removed and each animal was placed one time in the pool for a period of 60 seconds. The time each mouse spent in the area where the platform had been located during the previous days was registered. This time interval was regarded as a measure of effectiveness of training fulfilled during the previous two days. The testing was carried out during the day time in isolated laboratory using "white noise" at level of about 70 decibel above the human hearing threshold.

Where [8] appears, read: read-out: Dopamine receptors, % inhibition D3.

T2 sequence (P21728 whole entry): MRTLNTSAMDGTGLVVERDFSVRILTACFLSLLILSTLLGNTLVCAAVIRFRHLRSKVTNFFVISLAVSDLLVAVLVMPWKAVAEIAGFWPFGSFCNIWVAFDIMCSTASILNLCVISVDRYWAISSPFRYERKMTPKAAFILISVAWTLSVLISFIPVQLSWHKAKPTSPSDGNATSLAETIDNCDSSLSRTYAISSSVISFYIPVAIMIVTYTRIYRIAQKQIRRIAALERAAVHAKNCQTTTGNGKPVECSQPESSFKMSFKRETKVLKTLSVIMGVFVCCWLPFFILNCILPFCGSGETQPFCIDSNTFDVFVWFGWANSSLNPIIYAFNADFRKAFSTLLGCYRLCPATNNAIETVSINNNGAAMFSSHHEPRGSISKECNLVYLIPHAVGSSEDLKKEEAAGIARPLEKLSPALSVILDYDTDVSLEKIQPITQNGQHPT
T1 sequence (P28223 whole entry): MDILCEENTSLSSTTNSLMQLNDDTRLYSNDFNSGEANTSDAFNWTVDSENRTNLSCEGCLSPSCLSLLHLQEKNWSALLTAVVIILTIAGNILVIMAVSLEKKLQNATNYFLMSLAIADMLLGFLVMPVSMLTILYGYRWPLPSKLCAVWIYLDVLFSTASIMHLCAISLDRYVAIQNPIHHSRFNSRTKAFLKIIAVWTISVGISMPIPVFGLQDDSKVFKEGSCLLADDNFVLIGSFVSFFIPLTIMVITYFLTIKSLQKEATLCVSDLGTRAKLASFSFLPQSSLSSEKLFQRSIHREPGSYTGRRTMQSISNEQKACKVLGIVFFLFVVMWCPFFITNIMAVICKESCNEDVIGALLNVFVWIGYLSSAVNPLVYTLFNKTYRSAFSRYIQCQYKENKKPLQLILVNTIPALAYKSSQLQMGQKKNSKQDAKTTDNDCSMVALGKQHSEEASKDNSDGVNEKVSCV
T3 sequence (P35462 whole entry): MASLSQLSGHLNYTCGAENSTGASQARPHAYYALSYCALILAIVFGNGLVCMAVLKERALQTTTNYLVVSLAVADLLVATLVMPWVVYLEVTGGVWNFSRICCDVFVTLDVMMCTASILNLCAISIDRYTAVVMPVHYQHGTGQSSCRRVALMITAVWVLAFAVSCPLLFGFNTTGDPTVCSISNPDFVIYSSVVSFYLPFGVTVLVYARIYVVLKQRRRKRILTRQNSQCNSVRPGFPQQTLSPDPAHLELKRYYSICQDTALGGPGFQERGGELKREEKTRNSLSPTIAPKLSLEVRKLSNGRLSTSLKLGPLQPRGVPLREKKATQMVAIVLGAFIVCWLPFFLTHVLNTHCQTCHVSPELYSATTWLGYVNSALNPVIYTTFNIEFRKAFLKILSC

On to `Cc1ccc2c(c1)c1c(n2CCc2ccccn2)CCCN(C)C1` [1.2.2(2-2)], for which the 5-HT2A % inhibition in assay [1] is 46%.

A word on the inhibition: it is the drop in the measured response relative to a control, in per cent. In the case of `Cc1ccc2c(c1)[C@@H]1CN(C)CCC[C@@H]1N2CCc1ccc(C)nc1` (relative stereo) [1.6.1(2)·3HCl], the inhibition at 10 µM in assay [1] is -4%; in assay [2], 55%; in assay [3] (setting [8]) it was 41%.

On to `Cc1ccc2c(c1)[C@@H]1CN(C)CCC[C@@H]1N2CCc1cccnc1` (relative stereo) [1.6.1(1)·3HCl], for which the inhibition at 10 µM in assay [2] stood at 59%; in assay [3] (setting [8]), 34%.

Turning to `Cc1ccc(CCn2c3c(c4cc(C)ccc42)CN(C)CC3)cc1` [1.1.2(1-3), 2,8-dimethyl-5-[2-(4-methylphenyl)-ethyl]-1,2,3,4-tetrahydro-1H-pyrido[4,3-b]indole], the 5-HT2A % inhibition in assay [1] was determined as 98%.

By IC50 is commonly meant the midpoint of a concentration-inhibition curve. By Ki is commonly meant the dissociation constant of the complex between target and ligand, obtained from inhibition or displacement. `CN1CCc2c(c3ccccc3n2Cc2ccccc2)C1` [1.9(1)·1/2NDSA, bis-(5-benzyl-2-methyl-2,3,4,5-tetrahydro-1H-pyrido[4,3-b]indole) naphthalene-1,5-disulfonate]: the “memory enhancement disturbed by MK-801” value in assay [4] is given as “act as nootropic”. In assay [2] (Receptor D1), this molecule yielded a concentration for half-maximal inhibition (IC50) of 3660 nM, an inhibition constant (Ki) of 1830 nM and a nH of 1.38. Also, the inhibition at 10 µM in assay [2] is 77%. Also, in assay [3] (Receptor D3), the nH turned out to be 1.04. In addition, in assay [3] (setting [8]), the inhibition at 10 µM is 65%. Moreover, the “enhancement of memory disturbed by Scopolamine” value in assay [5] is “nootropic action”. Moreover, the “Anxiolytic (tranquilizing) action” value in assay [6] is on record as “exhibits anxiolytic (tranquilizing) action”.

`Cc1ccc2c(c1)c1c(n2CCc2ccc(C)nc2)CCN(C)C1` [1.1.2(4-2)·2HCl]: the inhibition at 10 µM in assay [2] (10 µM ligand) was 82%; in assay [3] (10 µM ligand, read-out: Dopamine receptors, % inhibition D3), 64%.

Consider `CN1CCc2c(c3ccccc3n2Cc2ccccc2)C1.Cl` [1.9(1)·HCl, 5-benzyl-2-methyl-2,3,4,5-tetrahydro-1H-pyrido[4,3-b]indole hydrochloride], for which the inhibition at 0.1 µM in assay [1] (0.1µM ligand) was determined as 68%. In assay [1], the inhibition at 10 µM was 96%. For the same molecule, the nH in assay [1] (5-HT2A) stood at 0.765.

As to `Cc1ccc2c(c1)c1c(n2CCc2ccccn2)CCN(C)C1` [1.1.2(2-3)·2HCl], in assay [2], the inhibition at 10 µM worked out at 70%. For the same molecule, the “memory disorders caused by Scopolamine (time spent in area of the platform)” value in assay [7] was “decreasing memory disorders”. Also, the inhibition at 3 µM in assay [3] (setting [8]) came to 78%.
